Source: patent US6846489B1, “Vaccines containing a saponin and a sterol” (priority 1995, dated 2005)

Legend:
erythrocytes = test: Lytic activity of QS21 on erythrocytes (hemolysis); type: cell-based; details: for lytic activity: expressed as μg QS21 equivalent for the same hemolysis, 5 μg QS21 (or digitonin)
Description: When QS21 is added to erythrocytes, they lyse them releasing hemoglobin. This lytic activity can also be measured using liposomes which contain cholesterol in their membrane and an entrapped fluorescent dye, carboxyfluorescein—as the liposomes are lysed the dye is released which can be monitored by fluorescence spectroscopy.
If the QS21 first associates with cholesterol in liposomes it is no longer lyric towards cells or other liposomes.
In the presence of phospholipids the cholesterol resides within the phospholipid bilayer which can form a stable suspension of vesicles called liposomes. To avoid the requirement to add phospholipids a soluble derivative was tried.

[1] = Lytic activity of QS21 on fluorescent liposomes (carboxyfluorescein release); details: fluorescent liposomes without cholesterol in their membrane
Description: When QS21 is added to erythrocytes, they lyse them releasing hemoglobin. […]
The same holds true using fluorescent liposomes to measure the lytic activity.

[2] = Base-mediated hydrolysis of QS21 monitored by reverse-phase HPLC; type: physicochemical; details: pH 9, 37° C.
Description: This hydrolysis can be monitored by measuring the decrease in the peak corresponding to QS21 on reverse-phase HPLC.

[3] = type: in vivo, rabbits
Text: 1.6 Reactogenicity intra-muscularly in rabbits
Since the CPK increase is a measure of muscle damage this indicates decreased muscle damage and is confirmed by the histopathology.

[4] = Binding of the liposome-QS21 complex to alum; type: physicochemical; details: incubated with alum (Al(OH)3) in PBS
Description: QS21 was incubated with neutral liposomes containing excess cholesterol as well as radioactive cholesterol and then incubated with alum (Al(OH)3) in PBS.

HSV gD = details: antigen gD (5 μg)

Row | Compound | lytic activity (erythrocytes) [µg] | lytic activity on erythrocytes (erythrocytes; QS21 incubated with liposomes containing cholesterol before adding to erythrocytes, 1:1 ratio cholesterol to QS21) | lysis of fluorescent liposomes [1] | hydrolysis of the QS21 ([2]; 16 hours, liposomes containing cholesterol added 2:1 (chol:QS21 w/w)) | QS21 degraded ([2]; 16 hours, liposomes containing cholesterol, ratio 1:1) [%] | QS21 hydrolysed ([2]; within 16 hours, QS21 alone) [%] | toxicity in rabbits (by CPK) ([3]; QS21 associated with cholesterol-containing liposomes, Chol:QS21=6:1) | CPK Day0 Mean ([3]; mean of 5 rabbits) [U.I./L] | CPK Day1 Mean ([3]; mean of 5 rabbits) [U.I./L] | CPK Day3 Mean ([3]; mean, value in parentheses left out) [U.I./L] | binding to alum in PBS [4] | IgG1 %, isotypes 7 days post II (HSV gD) [%] | IgG1, isotypes 7 days post II (HSV gD) [µg/mL] | IgG2a %, isotypes 7 days post II (HSV gD) [%] | IgG2a, isotypes 7 days post II (HSV gD) [µg/mL] | IgG2b %, isotypes 7 days post II (HSV gD) [%] | IgG2b, isotypes 7 days post II (HSV gD) [µg/mL] | IgG 7 post II (GMT) (HSV gD) | IgG 14 post II (GMT) (HSV gD) | reduction in the lytic activity of QS21 (erythrocytes; 2000 fold excess (w/w) over QS21)
1 | C[C@@H]1CC[C@@]2(OC1)O[C@H]1[C@@H](O)[C@H]3[C@@H]4CC[C@H]5C[C@@H](O[C@@H]6O[C@H](CO)[C@H](O[C@@H]7O[C@H](CO)[C@@H](O)[C@H](O[C@@H]8OC[C@@H](O)[C@H](O)[C@H]8O)[C@H]7O[C@@H]7O[C@H](CO)[C@H](O)[C@H](O[C@@H]8O[C@H](CO)[C@@H](O)[C@H](O)[C@H]8O)[C@H]7O)[C@H](O)[C@H]6O)[C@H](O)C[C@]5(C)[C@H]4CC[C@]3(C)[C@H]1[C@@H]2C [digitonin] | 5 |  |  |  |  |  |  |  |  |  |  |  |  |  |  |  |  |  |  | 
2 | QS21 | 5 | no lytic activity is detected | no lysis | no hydrolysis | 10 | 90 | non-toxic | 1369 | 6261 | 1212 | neither neutral liposomes nor QS21 bind to alum | 66 | 156 | 28 | 67 | 6 | 14 | 3468 | 4132 | 
3 | Polyoxyethanyl-cholesterol sebacate |  |  |  |  |  |  |  |  |  |  |  |  |  |  |  |  |  |  |  | no reduction
